Source: patent publication US6737383B1, “Herbicidal oxadiazolidines” (priority 1999, dated 2004)

Assays:
soybean = test: Test B pre/postemergence soybean; type: in vivo, Glycine max; details: for Plant response rating, Soybean: Postemergence
Procedure, shortened: (§1)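 Herbicidal effect was estimated by eye on a ten-point control scale after plants spent twelve to sixteen days in a greenhouse following soil or foliar treatment. Foliar sprays targeted plants at one to four leaves; all doses were formulated in a non-phytotoxic solvent with surfactant.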

corn = test: Test B pre/postemergence corn; type: in vivo, Zea mays
Procedure, shortened: as §1

velvetleaf = test: Test B pre/postemergence velvetleaf; type: in vivo, Abutilon theophrasti; details: for Plant response rating, Velvetleaf: Postemergence
Procedure, shortened: as §1

giant foxtail = test: Test B pre/postemergence giant foxtail; type: in vivo, Setaria faberii
Procedure, shortened: as §1

wheat = test: Test B pre/postemergence wheat; type: in vivo, Triticum aestivum; details: for Plant response rating, Wheat: Postemergence
Procedure, shortened: as §1

sugar beet = test: Test B pre/postemergence sugar beet; type: in vivo, Beta vulgaris; details: for Plant response rating, Sugarbeets: Postemergence
Procedure, shortened: as §1

rape = test: Test B pre/postemergence rape; type: in vivo, Brassica napus
Procedure, shortened: as §1

blackgrass = test: Test B pre/postemergence blackgrass; type: in vivo, Alopecurus myosuroides
Procedure, shortened: as §1

cocklebur = test: Test B pre/postemergence cocklebur; type: in vivo, Xanthium strumarium
Procedure, shortened: as §1

morningglory = test: Test B pre/postemergence morningglory; type: in vivo, Ipomoea hederacea
Procedure, shortened: as §1

pigweed = test: Test B pre/postemergence pigweed; type: in vivo, Amaranthus retroflexus; details: for Plant response rating, Redroot pigweed: Postemergence; for Redroot pigweed plant response rating: Preemergence
Procedure, shortened: as §1

purple nutsedge = test: Test B pre/postemergence purple nutsedge; type: in vivo, Cyperus rotundus
Procedure, shortened: as §1

wild oat = test: Test B pre/postemergence wild oat; type: in vivo, Avena fatua; details: for Plant response rating, Wild oats: Postemergence
Procedure, shortened: as §1

crabgrass = test: Test B pre/postemergence crabgrass; type: in vivo, Digitaria sanguinalis
Procedure, shortened: as §1

bedstraw = test: Test B pre/postemergence bedstraw; type: in vivo, Galium aparine; details: Preemergence
Procedure, shortened: as §1

surinam grass = test: Test B pre/postemergence surinam grass; type: in vivo, Brachiaria decumbens
Procedure, shortened: as §1

[1] = Rate 500 g/ha, scale of 0 to 10 where 0 is no effect and 10 is complete control
[2] = Preemergence, Rate 62 g/ha, scale 0 to 10 (0 no effect, 10 complete control)
[3] = Preemergence, Rate 125 g/ha, scale 0 to 10, 0 is no effect, 10 is complete control
[4] = Preemergence, Rate 500 g/ha, scale of 0 to 10 where 0 is no effect and 10 is complete control
[5] = Rate 250 g/ha, scale of 0 to 10 where 0 is no effect and 10 is complete control
[6] = Postemergence, Rate 62 g/ha, scale of 0 to 10, 0 is no effect, 10 is complete control
[7] = Postemergence, Rate 125 g/ha, scale 0 to 10, 0 is no effect, 10 is complete control
[8] = Postemergence, Rate 500 g/ha, scale of 0 to 10 where 0 is no effect and 10 is complete control
[9] = Rate 250 g/ha, Postemergence, scale of 0 to 10 where 0 is no effect and 10 is complete control
[10] = Rate 62 g/ha, scale 0 to 10 (0 no effect, 10 complete control)
[11] = Rate 125 g/ha, scale 0 to 10, 0 is no effect, 10 is complete control

CC(C)=CCn1c(=O)on(C(=O)N(c2ccccc2)C(C)C)c1=O [Compound 574]
4: B. signalgrass plant response rating (surinam grass; [2])
2: Plant response rating, Velvetleaf (velvetleaf; [1]) | Velvetleaf plant response rating (0 to 10 scale) (velvetleaf; Preemergence, Rate 250 g/ha) | Velvetleaf plant response rating (velvetleaf; [4]) | Plant response rating, Velvetleaf (velvetleaf; [5]) | Giant foxtail plant response rating (giant foxtail; [6]) | Plant response rating, Wheat (wheat; [1]) | Blackgrass plant response rating (blackgrass; [6]) | Blackgrass plant response rating (0 to 10 scale) (blackgrass; Preemergence, Rate 250 g/ha) | Blackgrass plant response rating (blackgrass; [4]) | Cocklebur plant response rating (cocklebur; [7]) | Plant response rating, Cocklebur (cocklebur; [8]) | Plant response rating, Cocklebur (cocklebur; [9]) | Crabgrass plant response rating (crabgrass; [7]) | Plant response rating, Crabgrass (crabgrass; [8]) | Crabgrass plant response rating (crabgrass; [2])
0: Soybean plant response rating (soybean; [2]) | Soybean plant response rating (soybean; [3]) | Soybean plant response rating (0 to 10 scale) (soybean; Preemergence, Rate 250 g/ha) | Soybean plant response rating (soybean; [4]) | Corn plant response rating (corn; [6]) | Corn plant response rating (corn; [7]) | Plant response rating, Corn (corn; [8]) | Corn plant response rating (corn; [2]) | Corn plant response rating (corn; [3]) | Corn plant response rating (0 to 10 scale) (corn; Preemergence, Rate 250 g/ha) | Corn plant response rating (corn; [4]) | Plant response rating, Corn (corn; [9]) | Velvetleaf plant response rating (velvetleaf; [2]) | Velvetleaf plant response rating (velvetleaf; [3]) | Wheat plant response rating (wheat; [2]) | Wheat plant response rating (wheat; [3]) | Wheat plant response rating (0 to 10 scale) (wheat; Preemergence, Rate 250 g/ha) | Wheat plant response rating (wheat; [4]) | Plant response rating, Wheat (wheat; [5]) | Plant response rating, Sugarbeets (sugar beet; [1]) | Sugarbeets plant response rating (sugar beet; [2]) | Sugarbeets plant response rating (sugar beet; [3]) | Sugarbeets plant response rating (0 to 10 scale) (sugar beet; Preemergence, Rate 250 g/ha) | Plant response rating, Sugarbeets (sugar beet; [5]) | Rape plant response rating (rape; [6]) | Rape plant response rating (rape; [7]) | Rape plant response rating (rape; [2]) | Rape plant response rating (rape; [3]) | Rape plant response rating (0 to 10 scale) (rape; Preemergence, Rate 250 g/ha) | Rape plant response rating (rape; [4]) | Plant response rating, Rape (rape; [9]) | Blackgrass plant response rating (blackgrass; [2]) | Blackgrass plant response rating (blackgrass; [3]) | Cocklebur plant response rating (cocklebur; [6]) | Cocklebur plant response rating (cocklebur; [2]) | Cocklebur plant response rating (cocklebur; [3]) | Cocklebur plant response rating (0 to 10 scale) (cocklebur; Preemergence, Rate 250 g/ha) | Cocklebur plant response rating (cocklebur; [4]) | Morningglory plant response rating (morningglory; [2]) | Morningglory plant response rating (morningglory; [3]) | Morningglory plant response rating (0 to 10 scale) (morningglory; Preemergence, Rate 250 g/ha) | Morningglory plant response rating (morningglory; [4]) | Redroot pigweed plant response rating (pigweed; [10]) | Redroot pigweed plant response rating (pigweed; [11]) | Plant response rating, Redroot pigweed (pigweed; [5]) | Nutsedge plant response rating (purple nutsedge; [6]) | Plant response rating, Nutsedge (purple nutsedge; [8]) | Nutsedge plant response rating (purple nutsedge; [2]) | Nutsedge plant response rating (purple nutsedge; [3]) | Nutsedge plant response rating (0 to 10 scale) (purple nutsedge; Preemergence, Rate 250 g/ha) | Nutsedge plant response rating (purple nutsedge; [4]) | Plant response rating, Nutsedge (purple nutsedge; [9]) | Plant response rating, Wild oats (wild oat; [1]) | Wild oats plant response rating (wild oat; [2]) | Wild oats plant response rating (wild oat; [3]) | Wild oats plant response rating (0 to 10 scale) (wild oat; Preemergence, Rate 250 g/ha) | Plant response rating, Wild oats (wild oat; [5]) | Crabgrass plant response rating (crabgrass; [6]) | Bedstraw plant response rating (bedstraw; [10]) | Bedstraw plant response rating (bedstraw; [11]) | Bedstraw plant response rating (0 to 10 scale) (bedstraw; Rate 250 g/ha) | Bedstraw plant response rating (bedstraw; [1]) | B. signalgrass plant response rating (surinam grass; [6]) | B. signalgrass plant response rating (surinam grass; [7]) | Plant response rating, B. signalgrass (surinam grass; [8]) | Plant response rating, B. signalgrass (surinam grass; [9])
8: Plant response rating, Giant foxtail (giant foxtail; [8])
7: Plant response rating, Soybean (soybean; [1]) | Giant foxtail plant response rating (giant foxtail; [7]) | B. signalgrass plant response rating (surinam grass; [3])
3: Sugarbeets plant response rating (sugar beet; [4]) | Plant response rating, Rape (rape; [8]) | Wild oats plant response rating (wild oat; [4])
5: Plant response rating, Redroot pigweed (pigweed; [1])
6: Plant response rating, Soybean (soybean; [5]) | Plant response rating, Giant foxtail (giant foxtail; [9]) | Blackgrass plant response rating (blackgrass; [7]) | Plant response rating, Blackgrass (blackgrass; [9])
9: Giant foxtail plant response rating (giant foxtail; [2]) | Redroot pigweed plant response rating (pigweed; [1]) | Crabgrass plant response rating (crabgrass; [3]) | Crabgrass plant response rating (0 to 10 scale) (crabgrass; Preemergence, Rate 250 g/ha) | Crabgrass plant response rating (crabgrass; [4]) | B. signalgrass plant response rating (surinam grass; [4])
10: Giant foxtail plant response rating (giant foxtail; [3]) | Giant foxtail plant response rating (0 to 10 scale) (giant foxtail; Preemergence, Rate 250 g/ha) | Giant foxtail plant response rating (giant foxtail; [4]) | Morningglory plant response rating (morningglory; [6]) | Morningglory plant response rating (morningglory; [7]) | Plant response rating, Morningglory (morningglory; [8]) | Plant response rating, Morningglory (morningglory; [9]) | B. signalgrass plant response rating (0 to 10 scale, 0 is no effect, 10 is complete control) (surinam grass; Preemergence, Rate 250 g/ha)
